Results taken from patent publication US20240158446A1, “CYCLIC COMPOUND HAVING SELECTIVE INHIBITORY ACTION ON KRAS OVER HRAS AND NRAS” (CHUGAI SEIYAKU KABUSHIKI KAISHA, priority 2021, published 2024).

Key:
[1] = molecular target: GDP-bound KRAS wild-type protein (Homo sapiens, UniProt P01116); assay: Binding to KRAS by surface plasmon resonance (SPR), Single Cycle Kinetics; settings: SPR Single Cycle Kinetics, GDP-bound KRAS wild-type protein, 1:1 binding model; read-out: KRAS KD
[2] = molecular target: GDP-bound HRAS wild-type protein (Homo sapiens, UniProt P01112); assay: Binding to HRAS by surface plasmon resonance (SPR), Single Cycle Kinetics; settings: SPR, GDP-bound HRAS wild-type protein vs GDP-bound KRAS wild-type protein
Sequence of GDP-bound HRAS wild-type protein (P01112 whole entry): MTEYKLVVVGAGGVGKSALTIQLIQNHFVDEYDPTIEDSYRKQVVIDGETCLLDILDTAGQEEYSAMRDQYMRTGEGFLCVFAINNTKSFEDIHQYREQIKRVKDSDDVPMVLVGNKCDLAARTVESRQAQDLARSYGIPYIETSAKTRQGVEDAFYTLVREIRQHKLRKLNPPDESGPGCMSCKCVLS

[3] = molecular target: GDP-bound NRAS wild-type protein (Homo sapiens, UniProt P01111); assay: Binding to NRAS by surface plasmon resonance (SPR), Single Cycle Kinetics; settings: SPR, GDP-bound NRAS wild-type protein vs GDP-bound KRAS wild-type protein
Sequence of GDP-bound NRAS wild-type protein (P01111 whole entry): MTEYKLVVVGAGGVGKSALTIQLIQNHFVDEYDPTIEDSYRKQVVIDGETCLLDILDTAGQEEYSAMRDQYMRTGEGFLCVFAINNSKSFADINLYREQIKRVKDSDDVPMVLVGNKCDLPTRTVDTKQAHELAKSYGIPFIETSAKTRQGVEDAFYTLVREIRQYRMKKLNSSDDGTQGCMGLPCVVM

Sequence of GDP-bound KRAS wild-type protein (P01116 whole entry): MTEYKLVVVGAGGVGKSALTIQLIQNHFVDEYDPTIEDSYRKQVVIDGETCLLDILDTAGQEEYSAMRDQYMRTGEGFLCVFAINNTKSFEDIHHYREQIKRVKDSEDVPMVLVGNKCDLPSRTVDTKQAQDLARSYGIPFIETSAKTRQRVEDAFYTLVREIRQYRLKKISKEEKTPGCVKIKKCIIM

Structure (SMILES): CCO[C@@H]1C[C@H]2C(=O)NC3(CCC3)C(=O)N(C)[C@@H](C3CCCC3)C(=O)N(C)[C@H](C(=O)N(C)C)CC(=O)N(C)[C@@H](CC3CC3)C(=O)N[C@@H]([C@@H](C)CC)C(=O)N(C)CC(=O)N(C)[C@H]3CCCCN(C3=O)[C@@H](Cc3ccc(C(F)(F)F)cc3)C(=O)N(C)CC(=O)N[C@@H](CCc3cc(F)c(C(F)(F)F)c(F)c3)C(=O)N2C1 [PP0697]
- Kd [1]: 0.021 nM
- HRAS/KRAS (ratio of KD value with respect to HRAS to KD value with respect to KRAS) [2]: C (A compound having a KD ratio of 0.1 or more and less than 3 is denoted as C)
- NRAS/KRAS (ratio of KD value with respect to NRAS to KD value with respect to KRAS) [3]: C (A compound having a KD ratio of 0.1 or more and less than 3 is denoted as C)

Structure (SMILES): CCO[C@@H]1C[C@H]2C(=O)NC3(CCC3)C(=O)N(C)[C@@H](C3CCCC3)C(=O)N(C)[C@H](C(=O)N(C)C)CC(=O)N(C)[C@@H](CC3CCC3)C(=O)N[C@@H]([C@@H](C)CC)C(=O)N(C)CC(=O)N(C)[C@H]3CCCCN(C3=O)[C@@H](Cc3ccc(C(F)(F)F)cc3)C(=O)N(C)CC(=O)N[C@@H](CCc3cc(F)c(C(F)(F)F)c(F)c3)C(=O)N2C1 [PP0698]
- Kd [1]: 0.015 nM
- HRAS/KRAS (ratio of KD value with respect to HRAS to KD value with respect to KRAS) [2]: C (A compound having a KD ratio of 0.1 or more and less than 3 is denoted as C)
- NRAS/KRAS (ratio of KD value with respect to NRAS to KD value with respect to KRAS) [3]: C (A compound having a KD ratio of 0.1 or more and less than 3 is denoted as C)

Structure (SMILES): CCO[C@@H]1C[C@H]2C(=O)NC3(CCC3)C(=O)N(C)[C@@H](C3CCCC3)C(=O)N(C)[C@H](C(=O)N(C)C)CC(=O)N(C)[C@@H](CC(C)(C)C)C(=O)N[C@@H]([C@@H](C)CC)C(=O)N(C)CC(=O)N(C)[C@H]3CCCCN(C3=O)[C@@H](Cc3ccc(C(F)(F)F)cc3)C(=O)N(C)CC(=O)N[C@@H](CCc3cc(F)c(C(F)(F)F)c(F)c3)C(=O)N2C1 [PP0699]
- Kd [1]: 0.036 nM
- HRAS/KRAS (ratio of KD value with respect to HRAS to KD value with respect to KRAS) [2]: C (A compound having a KD ratio of 0.1 or more and less than 3 is denoted as C)
- NRAS/KRAS (ratio of KD value with respect to NRAS to KD value with respect to KRAS) [3]: C (A compound having a KD ratio of 0.1 or more and less than 3 is denoted as C)

Structure (SMILES): CCO[C@@H]1C[C@H]2C(=O)NC3(CCC3)C(=O)N(C)[C@@H](C3CCCC3)C(=O)N(C)[C@H](C(=O)N(C)C)CC(=O)N(C)[C@@H](CC3CCCCC3)C(=O)N[C@@H]([C@@H](C)CC)C(=O)N(C)CC(=O)N(C)[C@H]3CCCCN(C3=O)[C@@H](Cc3ccc(C(F)(F)F)cc3)C(=O)N(C)CC(=O)N[C@@H](CCc3cc(F)c(C(F)(F)F)c(F)c3)C(=O)N2C1 [PP0701]
- Kd [1]: 0.017 nM
- HRAS/KRAS (ratio of KD value with respect to HRAS to KD value with respect to KRAS) [2]: B (a compound having 3 or more and less than 10 is denoted as B)
- NRAS/KRAS (ratio of KD value with respect to NRAS to KD value with respect to KRAS) [3]: C (A compound having a KD ratio of 0.1 or more and less than 3 is denoted as C)

Structure (SMILES): CCO[C@@H]1C[C@H]2C(=O)NC3(CCC3)C(=O)N(C)[C@@H](C3CCCC3)C(=O)N(C)[C@H](C(=O)N(C)C)CC(=O)N(C)[C@@H](Cc3cccnc3)C(=O)N[C@@H]([C@@H](C)CC)C(=O)N(C)CC(=O)N(C)[C@H]3CCCCN(C3=O)[C@@H](Cc3ccc(C(F)(F)F)cc3)C(=O)N(C)CC(=O)N[C@@H](CCc3cc(F)c(C(F)(F)F)c(F)c3)C(=O)N2C1 [PP0703]
- Kd [1]: 0.013 nM
- HRAS/KRAS (ratio of KD value with respect to HRAS to KD value with respect to KRAS) [2]: B (a compound having 3 or more and less than 10 is denoted as B)
- NRAS/KRAS (ratio of KD value with respect to NRAS to KD value with respect to KRAS) [3]: C (A compound having a KD ratio of 0.1 or more and less than 3 is denoted as C)

Structure (SMILES): CCO[C@@H]1C[C@H]2C(=O)NC3(CCC3)C(=O)N(C)[C@@H](C3CCCC3)C(=O)N(C)[C@H](C(=O)N(C)C)CC(=O)N(C)[C@@H](COC)C(=O)N[C@@H]([C@@H](C)CC)C(=O)N(C)CC(=O)N(C)[C@H]3CCCCN(C3=O)[C@@H](Cc3ccc(C(F)(F)F)cc3)C(=O)N(C)CC(=O)N[C@@H](CCc3cc(F)c(C(F)(F)F)c(F)c3)C(=O)N2C1 [PP0704]
- Kd [1]: 0.011 nM
- HRAS/KRAS (ratio of KD value with respect to HRAS to KD value with respect to KRAS) [2]: C (A compound having a KD ratio of 0.1 or more and less than 3 is denoted as C)
- NRAS/KRAS (ratio of KD value with respect to NRAS to KD value with respect to KRAS) [3]: C (A compound having a KD ratio of 0.1 or more and less than 3 is denoted as C)

Structure (SMILES): CCO[C@@H]1C[C@H]2C(=O)NC3(CCC3)C(=O)N(C)[C@@H](C3CCCC3)C(=O)N(C)[C@H](C(=O)N(C)C)CC(=O)N(C)[C@@H](CCOC)C(=O)N[C@@H]([C@@H](C)CC)C(=O)N(C)CC(=O)N(C)[C@H]3CCCCN(C3=O)[C@@H](Cc3ccc(C(F)(F)F)cc3)C(=O)N(C)CC(=O)N[C@@H](CCc3cc(F)c(C(F)(F)F)c(F)c3)C(=O)N2C1 [PP0705]
- Kd [1]: 0.027 nM
- HRAS/KRAS (ratio of KD value with respect to HRAS to KD value with respect to KRAS) [2]: C (A compound having a KD ratio of 0.1 or more and less than 3 is denoted as C)
- NRAS/KRAS (ratio of KD value with respect to NRAS to KD value with respect to KRAS) [3]: C (A compound having a KD ratio of 0.1 or more and less than 3 is denoted as C)

Structure (SMILES): CCO[C@@H]1C[C@H]2C(=O)NC3(CCC3)C(=O)N(C)[C@@H](C3CCCC3)C(=O)N(C)[C@H](C(=O)N(C)C)CC(=O)N(C)C[C@@H](C)C(=O)N[C@@H]([C@@H](C)CC)C(=O)N(C)CC(=O)N(C)[C@H]3CCCCN(C3=O)[C@@H](Cc3ccc(C(F)(F)F)cc3)C(=O)N(C)CC(=O)N[C@@H](CCc3cc(F)c(C(F)(F)F)c(F)c3)C(=O)N2C1 [PP0706]
- Kd [1]: 3.6 nM
- HRAS/KRAS (ratio of KD value with respect to HRAS to KD value with respect to KRAS) [2]: B (a compound having 3 or more and less than 10 is denoted as B)
- NRAS/KRAS (ratio of KD value with respect to NRAS to KD value with respect to KRAS) [3]: B (a compound having 3 or more and less than 10 is denoted as B)

Structure (SMILES): CCO[C@@H]1C[C@H]2C(=O)NC3(CCC3)C(=O)N(C)[C@@H](C3CCCC3)C(=O)N(C)[C@H](C(=O)N3CCOCC3)CC(=O)N(C)[C@@H](CC)C(=O)N[C@@H]([C@@H](C)CC)C(=O)N(C)CC(=O)N(C)[C@H]3CCCCN(C3=O)[C@@H](Cc3ccc(C(F)(F)F)cc3)C(=O)N(C)CC(=O)N[C@@H](CCc3cc(F)c(C(F)(F)F)c(F)c3)C(=O)N2C1 [PP0708]
- Kd [1]: 0.026 nM
- HRAS/KRAS (ratio of KD value with respect to HRAS to KD value with respect to KRAS) [2]: B (a compound having 3 or more and less than 10 is denoted as B)
- NRAS/KRAS (ratio of KD value with respect to NRAS to KD value with respect to KRAS) [3]: B (a compound having 3 or more and less than 10 is denoted as B)

Structure (SMILES): CCC[C@H]1C(=O)N[C@@H]([C@@H](C)CC)C(=O)N(C)CC(=O)N(C)[C@H]2CCCCN(C2=O)[C@@H](Cc2ccc(C(F)(F)F)cc2)C(=O)N(C)CC(=O)N[C@@H](CCc2cc(F)c(C(F)(F)F)c(F)c2)C(=O)N2C[C@H](OCC)C[C@H]2C(=O)NC2(CCC2)C(=O)N(C)[C@@H](C2CCCC2)C(=O)N(C)[C@H](C(=O)N2CCOCC2)CC(=O)N1C [PP0709]
- Kd [1]: 0.03 nM
- HRAS/KRAS (ratio of KD value with respect to HRAS to KD value with respect to KRAS) [2]: B (a compound having 3 or more and less than 10 is denoted as B)
- NRAS/KRAS (ratio of KD value with respect to NRAS to KD value with respect to KRAS) [3]: C (A compound having a KD ratio of 0.1 or more and less than 3 is denoted as C)
